Measurements taken from patent US5696153A, “Therapeutic regimen for treating patients” (priority 1996, dated 1997).
Read-outs that look alike come from different tables or passages of the source.

Assays:
[1] = tested on: U-373-MG glioblastoma cells; test: cells; conditions: Homo sapiens, U373 MG; for cytotoxicity at 0.1 µg/mL / cytotoxicity at 1 µg/mL: 120 h
Source text: (§1) Cell lines tested included: Glioblastoma cell lines VA-MG-SL and U-373-MG, neuroblastoma cell lines SK-N-AS, SK-N-FI and VA-N-BR, and two primitive neuroectodermal tumor cell lines SK-N-LO and SK-PN-DW at different concentrations. All cell lines were personally established from patients and cultured except U-373-MG (obtained from the American Type Culture Collection, Rockville, […]., USA). The cell lines SK-N-AS, SK-N-FI, SK-N-LO and SK-PN-DW have been reported in several publications and are believed to be representative of their respective lineages.
(§2) Stock cells in 25 cm^2 flasks were incubated in Dubelco's modified Eagle's medium (Sigma, St. Louis, Mo.) containing 10% fetal bovine serum at 37° C. and 5% CO2 in air for 5 days. Media was renewed on the sixth day and on the seventh day the cells were detached into a single cell suspension with trypsin EDTA, counted and aliquots plated at 3000 to 5000 cells in 0.1 ml fresh media in separate wells of a 96-well microliter plate (Becton-Dickinson Labware, Lincoln Park, N.J.). […] Six replicate wells were used in every experiment as controls and for each test concentration. Each experiment was repeated three separate times. Viability of the cell lines 5 days after exposure to drugs was determined by the MTT assay following published procedures.
(§3) Cytocidal activity was defined when the number of cells or the MTT surrogate optical density value was less than the initial inoculum. This is usually the case when ≥80% toxicity is recorded under these in vitro conditions.
(§4) Differences were considered to be statistically significant for a p-value of 0.05 or less.

[2] = tested on: VA-N-BR neuroblastoma cells; test: cells; conditions: Neuroblastoma cell; for cytotoxicity at 0.1 µg/mL / cytotoxicity at 1 µg/mL: Homo sapiens, 120 h
Source text: as §1, §2, §3, §4

[3] = tested on: VA-MG-SL glioblastoma cells; test: cells; conditions: for cytotoxicity at 0.1 µg/mL / cytotoxicity at 1 µg/mL: Homo sapiens, 120 h
Source text: as §1, §2, §3, §4

[4] = tested on: SK-N-FI neuroblastoma cells; test: cells; conditions: for cytotoxicity at 0.1 µg/mL / cytotoxicity at 1 µg/mL: 120 h
Source text: as §1, §2, §3, §4

[5] = tested on: SK-N-LO primitive neuroectodermal tumor cells; test: MTT cytotoxicity, SK-N-LO; conditions: for cytotoxicity at 0.01 µg/mL / cytotoxicity at 0.1 µg/mL / cytotoxicity at 1 µg/mL: Homo sapiens, 120 h
Source text: as §1, §2, §3, §4

[6] = tested on: SK-N-AS neuroblastoma cells; test: MTT cytotoxicity, SK-N-AS; conditions: for cytotoxicity at 0.01 µg/mL / cytotoxicity at 0.1 µg/mL / cytotoxicity at 1 µg/mL: Homo sapiens, 120 h
Source text: as §1, §2, §3, §4

[7] = tested on: SK-N-AS neuroblastoma tumor in nude mice; test: Studies B and D: antitumor activity, Q4Dx3 vs Q4Hx3; format: in vivo
[8] = tested on: SK-N-AS cells; test: Cytopathologic changes after taxol exposure; format: cell-based, human; conditions: 1 μg/ml for 1 hour
Source text: Apoptosis was recognized as acute change in the cells. These included chromatin clumping at the periphery of the nucleus, loss of cytoplasmic detail and finally apoptotic bodies, either readily detached or floating with several being phagocytosed by surrounding cells.

[9] = tested on: various cancers; test: Human tumor responses, Q4D schedule; format: in vivo, human patients
Description: From the results obtained from the in vitro and the animal studies, responses of various human subjects to the Q4d×3 (21 days×3) protocol at dosages levels of about 60 mg/m^2 were evaluated. It should be understood that these patients were deemed "salvage" cases almost all of whom had not responded to conventional treatment. All were otherwise thought to be beyond approved therapeutic regimens. Thus, the results and evaluation are anecdotal in nature and are not part of a controlled and statistical valid clinical trial.
Characteristics of the group of twenty were: male (5); female (15); median age 44 (17-81); ECOG-PS 1 (0-3). All were previously treated with chemotherapy and radiation for cancers of the breast (5), ovarian (2), brain (3), prostate (1), head and neck (4), bone (2), leiomyosarcoma (2), and melanoma (1).

[10] = read-out: concentration at which cell line was affected

CC(=O)O[C@H]1C(=O)[C@@]2(C)[C@H]([C@H](OC(=O)c3ccccc3)[C@]3(O)C[C@H](OC(=O)[C@H](O)[C@@H](NC(=O)c4ccccc4)c4ccccc4)C(C)=C1C3(C)C)[C@]1(OC(C)=O)CO[C@@H]1C[C@@H]2O [taxol]
cytotoxicity at 0.1 µg/mL ([1]; read-out: Taxol toxicity, U-373-MG, 0.1 μg/ml x 1 h, 5 days after exposure): 46%
cytotoxicity at 0.1 µg/mL ([1]; read-out: Taxol toxicity, U-373-MG, 0.1 μg/ml x 4 h, 5 days after exposure): 56%
cytotoxicity at 0.1 µg/mL ([1]; read-out: Taxol toxicity, U-373-MG, 0.1 μg/ml x 24 h, 5 days after exposure): 57%
cytotoxicity at 1 µg/mL ([1]; read-out: Taxol toxicity, U-373-MG, 1.0 μg/ml x 1 h, 5 days after exposure): 74%
cytotoxicity at 1 µg/mL ([1]; read-out: Taxol toxicity, U-373-MG, 1.0 μg/ml x 4 h, 5 days after exposure): 79%
cytotoxicity at 1 µg/mL ([1]; read-out: Taxol toxicity, U-373-MG, 1.0 μg/ml x 24 h, 5 days after exposure): 79%
minimal effective concentration [1, 10]: ≥ 0.1 µg/mL
cytotoxicity at 0.1 µg/mL ([2]; read-out: Taxol toxicity, VA-N-BR, 0.1 μg/ml x 1 h, 5 days after exposure): 61%
cytotoxicity at 0.1 µg/mL ([2]; read-out: Taxol toxicity, VA-N-BR, 0.1 μg/ml x 4 h, 5 days after exposure): 66%
cytotoxicity at 0.1 µg/mL ([2]; read-out: Taxol toxicity, VA-N-BR, 0.1 μg/ml x 24 h, 5 days after exposure): 68%
cytotoxicity at 1 µg/mL ([2]; read-out: Taxol toxicity, VA-N-BR, 1.0 μg/ml x 1 h, 5 days after exposure): 87%
cytotoxicity at 1 µg/mL ([2]; read-out: Taxol toxicity, VA-N-BR, 1.0 μg/ml x 4 h, 5 days after exposure): 84%
cytotoxicity at 1 µg/mL ([2]; read-out: Taxol toxicity, VA-N-BR, 1.0 μg/ml x 24 h, 5 days after exposure): 83%
minimal effective concentration [2, 10]: ≥ 0.1 µg/mL
cytotoxicity at 0.1 µg/mL ([3]; read-out: Taxol toxicity, VA-MG-SL, 0.1 μg/ml x 1 h, 5 days after exposure): 58%
cytotoxicity at 0.1 µg/mL ([3]; read-out: Taxol toxicity, VA-MG-SL, 0.1 μg/ml x 4 h, 5 days after exposure): 56%
cytotoxicity at 0.1 µg/mL ([3]; read-out: Taxol toxicity, VA-MG-SL, 0.1 μg/ml x 24 h, 5 days after exposure): 58%
cytotoxicity at 1 µg/mL ([3]; read-out: Taxol toxicity, VA-MG-SL, 1.0 μg/ml x 1 h, 5 days after exposure): 87%
cytotoxicity at 1 µg/mL ([3]; read-out: Taxol toxicity, VA-MG-SL, 1.0 μg/ml x 4 h, 5 days after exposure): 90%
cytotoxicity at 1 µg/mL ([3]; read-out: Taxol toxicity, VA-MG-SL, 1.0 μg/ml x 24 h, 5 days after exposure): 86%
minimal effective concentration [3, 10]: ≥ 0.1 µg/mL
resilience of cell line to taxol (least/most resilient) ([4]; 0.01-1.0 μg/ml): the most
cytotoxicity at 0.1 µg/mL ([4]; Homo sapiens, read-out: Taxol toxicity, SK-N-FI, 0.1 μg/ml x 1 h, 5 days after exposure): 0%
cytotoxicity at 0.1 µg/mL ([4]; Homo sapiens, read-out: Taxol toxicity, SK-N-FI, 0.1 μg/ml x 4 h, 5 days after exposure): 0%
cytotoxicity at 0.1 µg/mL ([4]; Homo sapiens, read-out: Taxol toxicity, SK-N-FI, 0.1 μg/ml x 24 h, 5 days after exposure, p < 0.05 vs 1 h): 14%
cytotoxicity at 1 µg/mL ([4]; Homo sapiens, read-out: Taxol toxicity, SK-N-FI, 1.0 μg/ml x 1 h, 5 days after exposure): 0%
cytotoxicity at 1 µg/mL ([4]; Homo sapiens, read-out: Taxol toxicity, SK-N-FI, 1.0 μg/ml x 4 h, 5 days after exposure): 58%
cytotoxicity at 1 µg/mL ([4]; Homo sapiens, read-out: Taxol toxicity, SK-N-FI, 1.0 μg/ml x 24 h, 5 days after exposure, p < 0.05 vs 1 h): 76%
minimal effective concentration ([4]; Homo sapiens, read-out: concentration at which cell line was affected): ≥ 0.1 µg/mL
cytotoxicity at 0.01 µg/mL ([5]; read-out: Taxol toxicity, SK-N-LO, 0.01 μg/ml x 1 h, 5 days after exposure): 0%
cytotoxicity at 0.01 µg/mL ([5]; read-out: Taxol toxicity, SK-N-LO, 0.01 μg/ml x 4 h, 5 days after exposure): 0%
cytotoxicity at 0.01 µg/mL ([5]; read-out: Taxol toxicity, SK-N-LO, 0.01 μg/ml x 24 h, 5 days after exposure, p < 0.05 vs 1 h): 17%
cytotoxicity at 0.1 µg/mL ([5]; read-out: Taxol toxicity, SK-N-LO, 0.1 μg/ml x 1 h, 5 days after exposure): 43%
cytotoxicity at 0.1 µg/mL ([5]; read-out: Taxol toxicity, SK-N-LO, 0.1 μg/ml x 4 h, 5 days after exposure): 56%
cytotoxicity at 0.1 µg/mL ([5]; read-out: Taxol toxicity, SK-N-LO, 0.1 μg/ml x 24 h, 5 days after exposure): 47%
cytotoxicity at 1 µg/mL ([5]; read-out: Taxol toxicity, SK-N-LO, 1.0 μg/ml x 1 h, 5 days after exposure): 54%
cytotoxicity at 1 µg/mL ([5]; read-out: Taxol toxicity, SK-N-LO, 1.0 μg/ml x 4 h, 5 days after exposure): 58%
cytotoxicity at 1 µg/mL ([5]; read-out: Taxol toxicity, SK-N-LO, 1.0 μg/ml x 24 h, 5 days after exposure): 57%
cytotoxicity compared with a 1 hour exposure ([5]; SK-N-LO, 0.01 μg/ml, 24 hour): enhanced cytotoxicity
toxicity in words ([5]; SK-N-LO, 0.01 μg/ml, 24 hour exposure): toxic
cytotoxicity compared with a 1 hour exposure ([6]; 0.01 μg/ml, 24 hour): enhanced cytotoxicity
toxicity in words ([6]; 0.01 μg/ml, ≥1 hour exposure): toxic
resilience of cell line to taxol ([6]; 0.01-1.0 μg/ml): least resilient of the cell lines
cytotoxicity at 0.01 µg/mL ([6]; read-out: Taxol toxicity, SK-N-AS, 0.01 μg/ml x 1 h, 5 days after exposure): 15%
cytotoxicity at 0.01 µg/mL ([6]; read-out: Taxol toxicity, SK-N-AS, 0.01 μg/ml x 4 h, 5 days after exposure): 25%
cytotoxicity at 0.01 µg/mL ([6]; read-out: Taxol toxicity, SK-N-AS, 0.01 μg/ml x 24 h, 5 days after exposure, p < 0.05 vs 1 h): 50%
cytotoxicity at 0.1 µg/mL ([6]; read-out: Taxol toxicity, SK-N-AS, 0.1 μg/ml x 1 h, 5 days after exposure): 65%
cytotoxicity at 0.1 µg/mL ([6]; read-out: Taxol toxicity, SK-N-AS, 0.1 μg/ml x 4 h, 5 days after exposure): 67%
cytotoxicity at 0.1 µg/mL ([6]; read-out: Taxol toxicity, SK-N-AS, 0.1 μg/ml x 24 h, 5 days after exposure, p < 0.05 vs 1 h): 81%
cytotoxicity at 1 µg/mL ([6]; read-out: Taxol toxicity, SK-N-AS, 1.0 μg/ml x 1 h, 5 days after exposure): 87%
cytotoxicity at 1 µg/mL ([6]; read-out: Taxol toxicity, SK-N-AS, 1.0 μg/ml x 4 h, 5 days after exposure): 82%
cytotoxicity at 1 µg/mL ([6]; read-out: Taxol toxicity, SK-N-AS, 1.0 μg/ml x 24 h, 5 days after exposure): 89%
antitumor activity, Q4D×3 vs Q4H×3 ([7]; 15 mg/kg IP): greater antitumor activity than the Q4H×3 schedule
antitumor activity, Q4D vs QD schedule ([7]; mouse, in vivo): better in the Q4D than in the QD schedule
time of abnormal mitosis and polyploidy [8]: 36 to 72 h
time of apoptosis [8]: 6 to 24 h
cells altered by taxol ([8]; at 24, 48 and 72 hours): Approximately 30%
antitumor activity in words ([9]; Q4D schedule, advanced disease patients with varied histologies): has antitumor activity in advanced disease patients with varied histologies
effectiveness vs Q21 day schedule ([9]; Q4D, previously untreated patients or in combination/sequence, interpretation): equal to, or more effective than, the Q21 day schedule
partial response ([9]; all): four
partial response ([9]; brain): 1 instances
complete response ([9]; brain tumor): one
partial response ([9]; breast): 2 instances
partial response ([9]; head and neck): 1 instances
effectiveness in words ([9]; salvage patients, limited tests): demonstrated effectiveness
